Consider 21 compounds from US7893263B2, “Structural analogs of corosolic acid having anti-diabetic and anti-inflammatory properties” (Laila Nutraceuticals, priority 2004, dated 2011).

The subject of one data set is Albino wistar rats. The experiment in a line: Hypoglycemic activity: inhibition of sucrose-induced raise in serum glucose levels (SGL). The class given is in vivo. Set-up: Inhibitory rate (serum glucose level inhibitory rate): unit not given here. The conditions noted are these: oral dose 1 mg/Kg; for SGL (mean ± SE): 20 mL/kg of 20% sucrose orally after 30 minutes, blood drawn one hour after treatment, groups of six rats; for Inhibitory rate (serum glucose level inhibitory rate): mean increase in serum glucose levels of treated vs control groups. As to the method: Hypoglycemic activity: Hypoglycemic activity was tested by the inhibition of sucrose-induced raise in serum glucose levels (SGL), by the test substances in Albino wistar rats. The procedure involves fasting the rats for overnight at ad libitum water, numbered weighed and randomly divided into groups of six animals each. Prior to treatment blood samples were drawn from sinus orbital plexus of all animals using heparin coated glass capillaries under mild ether anesthesia. The blood samples were tested for serum glucose levels using enzymatic GOD/POD method. […] SGL=(test OD/Standard OD)×100 and the results were expressed in mg/dL. All the groups were treated orally with corresponding test substances, standard, vehicle (5% gum acacia). After 30 minutes, all animals were given 20 mL/kg of 20% sucrose solution orally using gastric tube. One hour after treatment, blood samples were drawn again under mild ether anesthesia and tested for serum glucose levels in a same procedure as described above for initial serum glucose estimation. The data was subjected to statistical treatment using t-test and inhibitory rate was calculated by comparing mean increase in serum glucose levels of control and treated groups. The corosolic acid analogs of this invention are found to show better hypoglycemic activity (Table 1; hypoglycemic activity is expressed in serum glucose level inhibitory rate values; higher the inhibitory rate value, higher is the activity) than the corosolic acid.

Data set [1] has as its system Brine shrimp (Artemia salina) nauplii. Briefly: in vivo. The conditions noted are these: 24 h at 37° C., 10 nauplii per vial. As to the method:
Brine shrimp lethality: Brine shrimp (Artemia salina) nauplii were hatched using brine shrimp eggs in a conical shaped vessel (1 L), filled with sterile artificial sea water (prepared using sea salt 38 g/L and adjusted to pH 8.5 using 1 N NaOH) under constant aeration for 48 h. After hatching, 10 nauplii were drawn through a pepette and placed in each vial containing 4.5 mL brine solution and added various concentrations of drug solutions and volume was made upto 5 mL using brine solution and maintained at 37° C. for 24 h under the light of incandescent lamps and surviving larvae were counted. Each experiment was conducted along with control (vehicle treated), at various concentrations of the test substance in each set that contains 6 tubes and the average results are reported. The percentage lethality was determined by comparing the mean mortal larvae of test and control tubes. LC50 values were obtained from the plot of concentration (μg) vs. percentage lethality. Podophyllotoxin was used as a positive control.
The corosolic acid analogs of this invention are found to show significant brine shrimp lethality (Table 3; brine shrimp lethality is expressed in LC50 at μM concentration; lower the LC50 value, higher is the activity).

The test system of another data set is 5-Lipoxygenase. Briefly: 5-Lipoxygenase inhibitory activity, colorimetric method (ferric xylenol orange, linoleic acid). The class given is biochemical. The protocol:
5-Lipoxygenase activity: The corosolic acid analogs were screened for their 5-Lipoxygenase inhibitory potential using colorimetric method. The assay mixture contained 50 mM phosphate buffer pH 6.3, 5-Lipoxygenase, various concentrations of test substances in dimethyl sulphoxide and linoleic acid in a total volume of 0.5 mL, after 5 min incubation of above reaction mixture, 0.5 mL ferric xylenol orange reagent was added and OD was measured after two minutes at 585 nm using spectrophotometer. Controls were run along with test in a similar manner except using vehicle instead of test substance solution. Percent inhibition was calculated by comparing absorbance of test solution with that of control.
The corosolic acid analogs of this invention are found to show good 5-lipoxygenase activity (Table 2; 5-lipoxygenase activity is expressed in % of inhibition at 100 μM and 250 μM; higher the % inhibitory values, higher is the activity).

As for `C[C@H]1[C@H](C)CC[C@]2(C(=O)O)CC[C@]3(C)C(=CC(=O)[C@@H]4[C@@]5(C)C[C@@H](O)[C@H](O)C(C)(C)[C@@H]5CC[C@]43C)[C@H]12` [Compound 17, 11-Ketocorosolic acid], in the data set on Albino wistar rats, the “SGL (mean ± SE)” value stood at 120.90 ± 9.66 mg/dL and the “Inhibitory rate (serum glucose level inhibitory rate)” value (shortened to “Inhibitory rate”) is listed as 25.78.
Usually LC50 stands for the concentration lethal to half of the exposed cells or organisms. As to `CC1CCC2(C(=O)N3CCNCC3)CCC3(C)C(=CCC4C5(C)CC(O)C(O)C(C)(C)C5CCC43C)C2C1C` (stereo not shown) [Compound 11, N-(Corosolyl)piperazine], in data set [1], the LC50 amounted to 9.2 µM. For the same compound, in the data set with Albino wistar rats, the “SGL (mean ± SE)” value worked out at 107.88 ± 4.61 mg/dL and the “Inhibitory rate” value worked out at 19.83. For the same compound, the “% inhibition of 5-Lox activity” value with 5-Lipoxygenase (100 μM) is on record as 35.42%. Moreover, the “% inhibition of 5-Lox activity” value with 5-Lipoxygenase (250 μM) was 64.99%.
On to `CC(=O)O[C@@H]1C[C@]2(C)[C@H]3CC=C4[C@@H]5[C@@H](C)[C@H](C)CC[C@]5(C(=O)O)CC[C@@]4(C)[C@]3(C)CC[C@H]2C(C)(C)[C@H]1OC(C)=O` [Compound 2, 2,3-Di-O-acetylcorosolic acid], for which the LC50 in data set [1] was determined as 1.8 µM. Also, the “% inhibition of 5-Lox activity” value with 5-Lipoxygenase (100 μM) is recorded as 20.08%; in the data set with 5-Lipoxygenase (250 μM) it was 44.54%.
On to `CC(N)C(=O)OC1CC2(C)C(CCC3(C)C2CC=C2C4C(C)C(C)CCC4(C(=O)O)CCC23C)C(C)(C)C1O.Cl` (stereo not shown) [Compound 5, 2-O-Alanylcorosolic acid hydrochloride], for which the LC50 in data set [1] was determined as 3.4 µM. Moreover, the “SGL (mean ± SE)” value with Albino wistar rats is reported as 113.49 ± 4.11 mg/dL. Further, the “Inhibitory rate” value in the data set on Albino wistar rats is 22.39. Moreover, the “% inhibition of 5-Lox activity” value in the data set with 5-Lipoxygenase (100 μM) is 29.14%; in the data set on 5-Lipoxygenase (250 μM) it was 67.03%.
For `C[C@H]1[C@H](C)CC[C@]2(C(=O)Nc3ccccc3)CC[C@]3(C)C(=CC[C@@H]4[C@@]5(C)C[C@@H](O)[C@H](O)C(C)(C)[C@@H]5CC[C@]43C)[C@H]12` [Compound 9, N-Phenylcorosolamide] the same measures were greater than 100 µM, 117.97 ± 0.37 mg/dL, 27.58, 8.16% and 21.77%.
`C[C@H]1[C@H](C)CC[C@]2(C(=O)O)CC[C@]3(C)C(=CC(=O)[C@@H]4[C@@]5(C)C[C@H]6OS(=O)(=O)O[C@@H]6C(C)(C)[C@@H]5CC[C@]43C)[C@H]12` [Compound 19, 2α,3β-Dihydroxyurs-12-en-11-one-28-oic acid 2,3-cyclicsulphate] gave a median lethal concentration (LC50) in data set [1] greater than 100 µM. Moreover, in the data set with Albino wistar rats, the “SGL (mean ± SE)” value is given as 129.16 ± 4.66 mg/dL and the “Inhibitory rate” value came to 11.67. Moreover, the “% inhibition of 5-Lox activity” value in the data set on 5-Lipoxygenase (250 μM) is on record as 11.81%.
Compound `COC(=O)[C@]12CC[C@@H](C)[C@H](C)[C@H]1C1=CC(=O)[C@@H]3[C@@]4(C)C[C@@H](O)[C@H](O)C(C)(C)[C@@H]4CC[C@@]3(C)[C@]1(C)CC2` [Compound 15, Methyl 11-ketocorosolate] returned an LC50 in data set [1] of 40.9 µM. In the data set with Albino wistar rats, the “SGL (mean ± SE)” value is given as 120.79 ± 4.85 mg/dL and the “Inhibitory rate” value was determined as 17.4. For the same compound, the “% inhibition of 5-Lox activity” value in the data set on 5-Lipoxygenase (250 μM) is 25.09%.
In data set [1], `CC1CCC2(C(=O)O)CCC3(C)C(=CCC4C5(C)CC(OC(=O)CN)C(O)C(C)(C)C5CCC43C)C2C1C.Cl` (stereo not shown) [Compound 4, 2-O-Glycylcorosolic acid hydrochloride] yielded a 50% lethal concentration (LC50) of 3.9 µM. Moreover, in the data set with Albino wistar rats, the “SGL (mean ± SE)” value is listed as 119.23 ± 9.58 mg/dL and the “Inhibitory rate” value is 26.8. Besides, the “% inhibition of 5-Lox activity” value in the data set with 5-Lipoxygenase (100 μM) is reported as 17.04%. In addition, in the data set on 5-Lipoxygenase (250 μM), the “% inhibition of 5-Lox activity” value worked out at 27.83%.
The matching figures for `C[C@H]1[C@H](C)CC[C@]2(C(N)=O)CC[C@]3(C)C(=CC[C@@H]4[C@@]5(C)C[C@@H](O)[C@H](O)C(C)(C)[C@@H]5CC[C@]43C)[C@H]12` [Compound 8, Corosolamide]: 29 µM, 110.14 ± 3.18 mg/dL, 18.15, 26.13% and 51.29%.
The matching figures for `CC1CCC2(C(=O)NCCN)CCC3(C)C(=CCC4C5(C)CC(O)C(O)C(C)(C)C5CCC43C)C2C1C` (stereo not shown) [Compound 10, N-(2-Aminoethyl)corosolamide]: 97.2 µM, 113.57 ± 3.80 mg/dL, 30.28, 21.74% and 40.87%.
For the compound Corosolinol [Compound 23], the LC50 in data set [1] was determined as 30.7 µM. For the same compound, in the data set with Albino wistar rats, the “SGL (mean ± SE)” value was found to be 113.06 ± 2.61 mg/dL and the “Inhibitory rate” value is recorded as 30.59. Moreover, in the data set on 5-Lipoxygenase (100 μM), the “% inhibition of 5-Lox activity” value came to 2.91%. For the same compound, the “% inhibition of 5-Lox activity” value with 5-Lipoxygenase (250 μM) was 19.63%.
In data set [1], `COC(=O)C12CCC(C)C(C)C1C1=CC(O)C3C4(C)CC(O)C(O)C(C)(C)C4CCC3(C)C1(C)CC2` (stereo not shown) [Compound 22, Methyl 11-hydroxycorosolate] showed an LC50 of 19.9 µM. For the same compound, the “% inhibition of 5-Lox activity” value was determined as 24.56% in the data set on 5-Lipoxygenase (100 μM) and 49.40% in the data set on 5-Lipoxygenase (250 μM).
In data set [1], `C[C@H]1[C@H](C)CC[C@]2(C(N)=O)CC[C@]3(C)C(=CC(=O)[C@@H]4[C@@]5(C)C[C@@H](O)[C@H](O)C(C)(C)[C@@H]5CC[C@]43C)[C@H]12` [Compound 20, 11-Ketocorosolamide] showed a median lethal concentration (LC50) greater than 100 µM. Further, in the data set with Albino wistar rats, the “SGL (mean ± SE)” value is 142.81 ± 7.30 mg/dL and the “Inhibitory rate” value was determined as 12.33. Moreover, the “% inhibition of 5-Lox activity” value in the data set on 5-Lipoxygenase (100 μM) stood at 18.57%. Further, in the data set with 5-Lipoxygenase (250 μM), the “% inhibition of 5-Lox activity” value worked out at 42.79%.
Take `CC(Cc1ccc(O)c(O)c1)C(C)Cc1ccc(O)c(O)c1` (stereo not shown) [NDGA, Nordihydroguaiaretic acid, reference compound]: the entries for the “% inhibition of 5-Lox activity” value with 5-Lipoxygenase (100 μM) and with 5-Lipoxygenase (250 μM) were 70.4% and 91.55%, respectively.
As for `CC1CCC2(C(=O)NCCO)CCC3(C)C(=CCC4C5(C)CC(O)C(O)C(C)(C)C5CCC43C)C2C1C` (stereo not shown) [Compound 12, N-(2-Hydroxyethyl)corosolamide], the 50% lethal concentration (LC50) in data set [1] was greater than 100 µM. Moreover, the “SGL (mean ± SE)” value in the data set with Albino wistar rats is 103.49 ± 7.12 mg/dL. Moreover, the “Inhibitory rate” value in the data set on Albino wistar rats was 36.47. In addition, the figures for the “% inhibition of 5-Lox activity” value in the data set with 5-Lipoxygenase (100 μM) and in the data set with 5-Lipoxygenase (250 μM) were 17.74% and 32.96%, respectively.
With `COC(=O)C12CCC(C)C(C)C1C1=CCC3C4(C)CC(OC(=O)C=Cc5cc(OC)c(OC)c(OC)c5)C(O)C(C)(C)C4CCC3(C)C1(C)CC2` (stereo not shown) [Compound 6, Methyl 2-O-(3,4,5-trimethoxycinnamoyl)corosolate], in data set [1], the median lethal concentration (LC50) is greater than 200 µM. For the same compound, in the data set with Albino wistar rats, the “SGL (mean ± SE)” value was 114.15 ± 6.62 mg/dL and the “Inhibitory rate” value came to 21.94. The “% inhibition of 5-Lox activity” value in the data set with 5-Lipoxygenase (250 μM) came to 13.47%.
In the case of “3-O-acetyl-11-keto-β-boswellic acid [AKBA, reference compound]”, the “% inhibition of 5-Lox activity” value is reported as 17.45% with 5-Lipoxygenase (100 μM) and 25.3% with 5-Lipoxygenase (250 μM).
The compound `CC1CCC2(C(=O)O)CCC3(C)C(=CCC4C5(C)CC6OS(=O)(=O)OC6C(C)(C)C5CCC43C)C2C1C` (stereo not drawn) [Compound 7, 2α,3β-Dihydroxyurs-12-en-28-oic acid 2,3-cyclicsulphate] gave a 50% lethal concentration (LC50) in data set [1] of 15 µM. In the data set on 5-Lipoxygenase (250 μM), the “% inhibition of 5-Lox activity” value was determined as 16.90%.
`CC(=O)OC1CC2(C)C(CCC3(C)C2C(=O)C=C2C4C(C)C(C)CCC4(C(=O)O)CCC23C)C(C)(C)C1OC(C)=O` (stereo not shown) [Compound 18, Diacetyl-11-ketocorosolic acid] returned a 50% lethal concentration (LC50) in data set [1] of 87.7 µM.
In the case of Methyl diacetylcorosolate [Compound 14], the 50% lethal concentration (LC50) in data set [1] was 42.1 µM. The “% inhibition of 5-Lox activity” value in the data set with 5-Lipoxygenase (250 μM) turned out to be 1.9%.
For “Methyl diacetyl-11-ketocorosolate [Compound 16]” the same measures were 82.3 µM and 3.82%.
